Where no end group is shown, it is not given here.
System: MRSA USA300
Test: Inhibition of bacterial attachment
Type: cell-based, Staphylococcus aureus
Conditions: Example 1, 4× and 8×MIC
Procedure: Inhibition of Bacterial Attachment. Bacterial attachment is the initial step for biofilm formation. For this experiment, an overnight culture of MRSA USA300 was grown overnight in TSB media to an optical density (OD600) of ˜1.0. […] The plates were then incubated at 37° C. for 1 hour. Next, the medium was aspirated and washed with 1×PBS, and 200 μL of TSB containing XTT 10% [2,3-bis(2-methyloxy-4-nitro-5-sulfophenyl)-2H-tertazolium-5-carboxanilide](ATCC, VA) solution was added. After incubation at 37° C. for 2 hours, absorbance was read at 450 nm using a ChroMate™ microtiter plate reader. TSB containing 10% XTT served as a blank, while bacterial culture treated with water served as a positive control. Percentages of viable cells in biofilms were plotted by assuming 100% growth in water treated control.
Bacterial attachment was conducted (Mishra, et al. (2016) ACS Med. Chem. Lett., 77(1):117-121; Duplantier, et al. (2013) Front. Immunol., 4: 143). In brief, an overnight culture of MRSA USA300 or P. aeruginosa E411-17 was grown overnight in TSB media to an optical density (OD600) of ˜1.0. […] The plates were then incubated at 37° C. for 1 hour. […] After incubation at 37° C. for 2 hours, absorbance was read at 450 nm using a ChroMate® microtiter plate reader. […]

In the case of RRWWRWWR-NH2 [W543], the anti-attachment ability is reported as “did not show anti-attachment ability”.
